According to patent publication US20210100869A1, “COMPOSITIONS AND METHODS OF USING SAME FOR TREATING AMYOTROPHIC LATERAL SCLEROSIS (ALS)” (Immunity Pharma Ltd., priority 2018, published 2021):
Residues, ends and D or L forms follow the SMILES beside them.

Key:
ALS patients [1] = experiment: Open-label Phase 1/2a clinical trial, safety and tolerability (adverse events); format: in vivo, human; conditions: eight patients, IV daily, 1.7 mg/kg escalated to 3.2 mg/kg
Experimental: Dose-limiting Toxicity (DLT): DLT is defined as a ≥Grade 3 per subject which is IPL344 drug-related adverse event (using CTCAE Version v.4.03) occurring at any dosing, excluding: • Grade 3 adverse event of hypersensitivity (defined as sinus tachycardia, heavy breathing or rash along the veins or elsewhere) • A transient (resolving within 6 hours of onset) Grade 3 study drug-related adverse event.
Adverse events (AE)—The FDA defines an AE as “any untoward medical occurrence associated with the use of a drug in humans, whether or not considered drug related” (US Department of Health and Human Services, December 2012). Medical conditions present before first administration of IPL344 are considered pre-existing conditions and are documented as medical history. A new condition, event or the worsening of a pre-existing condition is considered an AE from the first dose of administration.
AEs are coded by CTCAE Version v4.03.
Safety Analysis: The Safety population is based on participants having received at least one dose of IPL-344 (exposed population), including participants prematurely withdrawn. AEs are classified by system-organ class and preferred term and then summarized by number and percentage of participants experiencing AEs. […] The IPL344 DLT and maximal tolerated dose (MTD) are assessed and presented. […]

ALS patients [2] = conditions: estimated moderate effect; cited from earlier work

Row | SMILES | Safety and tolerability profile (ALS patients [1]; 28 days safety study) | Drug-related adverse events (ALS patients [1]) | Extension in patient survival (ALS patients [2])
1 | CC(C)C[C@H](NC(=O)[C@@H]1CCCN1C(=O)[C@@H]1CCCN1C(=O)[C@@H](N)CC(C)C)C(=O)N1CCC[C@H]1C(=O)N[C@@H](Cc1ccc(O)cc1)C(=O)N1CCC[C@H]1C(=O)O [IPL344, LPPLPYP] (H-LPPLPYP-OH) | favorable safety and tolerability profile | No drug-related adverse events | –
2 | CC1=NN(c2ccccc2)C(=O)C1 [edaravone] | – | – | three months extension in patient survival
